Where two headings read alike, the source gives them in different places.
Legend:
[1] = biological target: T1, Rat Kidney Medullary V2 Receptors (Rattus norvegicus, UniProt Q00788); assay: biochemical; format: binding
T1 construct: Medullary tissues from rat kidneys are dissected out; from tissue; host or cells: rat kidney medulla membranes
Protocol: Binding Assay to Rat Kidney Medullary V2 Receptors
Medullary tissues from rat kidneys are dissected out, cut into small pieces and soaked in a […] sodium chloride solution containing 1.0 mM EDTA with many changes of the liquid phase, until the solution is clear of blood. The tissue is homogenized in a 0.25M sucrose solution containing 1.0 mM EDTA and 0.1 mM PMSF using a Potter-Elvehjem homogenizer with a teflon pestle. The homogenate is filtered through several layers (4 layers) of cheese cloth. The filtrate is rehomogenized using a dounce homogenizer, with a tight fitting pestle. The final homogenate is centrifuged at 1500×g for 15 min. The nuclear pellet is discarded and the supernatant fluid recentrifuged at 40,000×g for 30 min. The resulting pellet formed contains a dark inner part with the exterior, slightly pink. The pink outer part is suspended in a small amount of 50.0 mM Tris.HCl buffer, pH 7.4. The protein content is determined by the Lowry's method (Lowry et al, J. Biol. Chem., 1953). The membrane suspension is stored at -70° C., in 50.0 mM Tris.HCl, containing 0.2% inactivated BSA and 0.1 mM PMSF in aliquots of 1.0 ml containing 10.0 mg protein per ml of suspension until use in subsequent binding experiments.
(§1) For binding experiments, the following is added in μl volume to wells of a 96 well format of a microtiter plate: 100.0 μl of 100.0 mM Tris.HCl buffer containing 0.2% heat inactivated BSA, 10.0 mM MgCl2 and a mixture of protease inhibitors: leupeptin, 1.0 mg %; aprotinin, 1.0 mg %; 1,10-phenanthroline, 2.0 mg %; trypsin inhibitor, 10.0 mg % and 0.1 mM PMSF, 20.0 μl of [^3 H] Arginine^8, vasopressin (S.A. 75.0 Ci/mmole) at 0.8 nM and the reaction initiated by the addition of 80.0 μl of tissue membranes (200.0 μg tissue protein). The plates are left undisturbed on the bench top for 120 min. to reach equilibrium. Non-specific binding is assessed in the presence of 1.0 μM of unlabeled ligand, added in 20 μl volume. For test compounds, these are solubilized in 50% dimethylsulfoxide (DMSO) and added in 20.0 μl volume to a final incubation volume of 200 μl. Upon completion of binding, the content of each well is filtered off, using a Brandel® cell Harvester (Gaithersburg, Md.). The radioactivity trapped on the filter disk by the ligand-receptor complex is assessed by liquid scintillation counting in a Packard LS Counter, with an efficiency of 65% for tritium. The data are analyzed for IC50 values by the LUNDON-2 program for competition (LUNDON SOFTWARE, Ohio).

[2] = biological target: T2, oxytocin receptors (Rattus norvegicus, UniProt P70536); assay: Oxytocin Receptor Binding; conditions: for IC50: rat uterine membranes, [3H]oxytocin
T2 sequence (P70536 1-388): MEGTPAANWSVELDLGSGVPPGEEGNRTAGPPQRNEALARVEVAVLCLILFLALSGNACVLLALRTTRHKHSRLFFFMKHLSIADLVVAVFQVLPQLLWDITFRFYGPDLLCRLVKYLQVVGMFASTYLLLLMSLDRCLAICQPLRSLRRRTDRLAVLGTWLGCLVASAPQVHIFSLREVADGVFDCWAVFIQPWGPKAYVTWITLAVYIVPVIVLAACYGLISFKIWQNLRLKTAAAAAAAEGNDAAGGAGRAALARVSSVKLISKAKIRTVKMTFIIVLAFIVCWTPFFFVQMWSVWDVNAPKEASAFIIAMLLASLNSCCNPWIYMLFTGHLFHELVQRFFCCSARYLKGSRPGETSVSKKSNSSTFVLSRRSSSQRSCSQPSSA
Protocol: Female Sprague-Dawley rats weighing approximately 200-250 g are injected intramuscularly (i.m.) with 0.3 mg/kg of body weight of diethylstilbestrol (DES). The rats are sacrificed 18 hours later under pentobarbital anesthesia. The uteri are dissected out, cleaned of fat and connective tissues and rinsed in 50 ml of normal saline. The tissue pooled from six rats is homogenized in 50 ml of 0.01 mM Tris.HCl, containing 0.5 mM dithiothreitol and 1.0 mM EDTA, adjusted to pH 7.4, using a polytron at setting 6 with three passes of 10 sec each. The homogenate is passed through two (2) layers of cheesecloth and the filtrate centrifuged at 1000×g for 10 min. The clear supernatant is removed and recentrifuged at 165,000×g for 30 min. The resulting pellet containing the oxytocin receptors is resuspended in 50.0 mM Tris.HCl containing 5.0 mM MgCl2 at pH 7.4, to give a protein concentration of 2.5 mg/ml of tissue suspension. This preparation is used in subsequent binding assays with [^3 H]Oxytocin.
Binding of 3,5-[^3 H]Oxytocin ([^3 H]OT) to its receptors is done in microtiter plates using [^3 H]OT, at various concentrations, in an assay buffer of 50.0 mM Tris.HCl, pH 7.4 and containing 5.0 mM MgCl2, and a mixture of protease inhibitors: BSA, 0.1 mg; aprotinin, 1.0 mg; 1,10-phenanthroline, 2.0 mg; trypsin, 10.0 mg; and PMSF, 0.3 mg per 100 ml of buffer solution. Non-specific binding is determined in the presence of 1.0 uM unlabeled OT. The binding reaction is terminated after 60 min., at 220° C., by rapid filtration through glass fiber filters using a Brandel® cell harvester (Bio-medical Research and Development Laboratories, Inc., Gaithersburg, Md.). Competition experiments are conducted at equilibrium using 1.0 nM [^3 H]OT and varying the concentration of the displacing agents. The concentrations of agent displacing 50% of [^3 H]OT at its sites (IC50) are calculated by a computer assisted LUNDON-2 program (LUNDON SOFTWARE INC., Ohio, USA).

[3] = biological target: Rat Hepatic V1 Receptors (Rattus norvegicus, UniProt P30560); assay: Binding Assay to Rat Hepatic V1 Receptors
Rat Hepatic V1 Receptors, sequence (P30560 whole entry): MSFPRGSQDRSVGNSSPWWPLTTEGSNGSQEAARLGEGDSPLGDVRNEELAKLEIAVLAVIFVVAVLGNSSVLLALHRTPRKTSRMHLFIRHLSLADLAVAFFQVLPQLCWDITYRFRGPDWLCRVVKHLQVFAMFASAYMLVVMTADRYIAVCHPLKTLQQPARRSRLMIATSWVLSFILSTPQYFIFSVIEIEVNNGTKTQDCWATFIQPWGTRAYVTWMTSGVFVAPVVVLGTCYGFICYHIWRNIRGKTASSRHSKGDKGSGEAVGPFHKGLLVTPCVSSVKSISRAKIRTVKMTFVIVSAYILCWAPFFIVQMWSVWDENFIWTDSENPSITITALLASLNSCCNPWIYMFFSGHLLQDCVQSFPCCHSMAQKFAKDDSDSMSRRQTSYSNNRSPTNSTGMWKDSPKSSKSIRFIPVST
Protocol: Binding Assay to Rat Hepatic V1 Receptors
Rat liver plasma membranes expressing the vasopressin V1 receptor subtypes are isolated by sucrose density gradient according to the method described by Lesko et al, (1973). These membranes are quickly suspended in 50.0 mM Tris.HCl buffer, pH 7.4, containing 0.2% bovine serum albumin (BSA) and 0.1 mM phenylmethylsulfonylfluoride (PMSF) and kept frozen at -70° C. until used in subsequent binding experiments. For binding experiments, the following is added to the wells of a ninety-six well format microtiter plate: 100 μl of 100.0 mM Tris.HCl buffer containing 10.0 mM MgCl2, 0.2% heat inactivated BSA and a mixture of protease inhibitors: leupeptin, 1.0 mg %; aprotinin, 1.0 mg %; 1,10-phenanthroline,2.0 mg %; trypsin inhibitor, 10.0 mg % and 0.1 mM PMSF, 20.0 μl of [phenylalanyl-3,4,5,-^3 H] vaso-pressin (S.A. 45.1 Ci/mmole) at 0.8 nM, and the reaction initiated by the addition of 80 μl of tissue membranes containing 20 μg of tissue protein. The plates are kept undisturbed on the bench top at room temperature for 120 min. to reach equilibrium. Non-specific samples are assayed in the presence of 0.1 μm of the unlabeled antagonist phenylalanylvasopressin, added in 20.0 μl volume. For test compounds, these are solubilized in 50% dimethylsulfoxide (DMSO) and added in 20.0 μl volume to a final incubation volume of 200 μl. Upon completion of binding, the content of each well is filtered off, using a Brandel® cell Harvester (Gaithersburg, Md.). The radioactivity trapped on the filter disk by the ligand-receptor complex is assessed by liquid scintillation counting in a Packard LS Counter, with an efficiency of 65% for tritium. The data are analyzed for IC50 values by the LUNDON-2 program for competition (LUNDON SOFTWARE, Ohio).

[4] = biological target: T3, Human V2 Vasopressin Receptor (Homo sapiens, UniProt P30518); assay: Binding to Membranes of Mouse Fibroblast Cell Line (LV-2) Transfected with the cDNA Expressing the Human V2 Vasopressin Receptor
T3 construct: expressed in transfected cells; host or cells: mouse fibroblast cell line LV-2
T3 sequence (P30518 whole entry): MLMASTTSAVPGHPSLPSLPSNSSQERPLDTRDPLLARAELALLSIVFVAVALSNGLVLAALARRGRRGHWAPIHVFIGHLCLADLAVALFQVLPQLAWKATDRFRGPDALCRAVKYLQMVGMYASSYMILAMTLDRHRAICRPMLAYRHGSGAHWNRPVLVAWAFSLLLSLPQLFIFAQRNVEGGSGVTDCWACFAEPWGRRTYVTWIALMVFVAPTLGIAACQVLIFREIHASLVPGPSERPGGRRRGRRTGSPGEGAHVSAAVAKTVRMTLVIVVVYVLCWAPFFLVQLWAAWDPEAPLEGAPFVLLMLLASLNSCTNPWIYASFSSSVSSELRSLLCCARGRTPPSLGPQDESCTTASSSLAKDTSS
Protocol: Binding to Membranes of Mouse Fibroblast Cell Line (LV-2) Transfected with the cDNA Expressing the Human V2 Vasopressin Receptor Membrane Preparation
Flasks of 175 ml capacity, containing attached cells grown to confluence, are cleared of culture medium by aspiration. The flasks containing the attached cells are rinsed with 2×5 ml of phosphate buffered saline (PBS) and the liquid aspirated off each time. Finally, 5 ml of an enzyme free dissociation Hank's based solution (Specialty Media, Inc., Lafayette, N.J.) is added and the flasks are left undisturbed for 2 min. The content of all flasks is poured into a centrifuge tube and the cells pelleted at 300×g for 15 min. The Hank's based solution is aspirated off and the cells homogenized with a polytron at setting #6 for 10 sec in 10.0 mM Tris.HCl buffer, pH 7.4 containing 0.25M sucrose and 1.0 mM EDTA. The homogenate is centrifuged at 1500×g for 10 min to remove ghost membranes. The supernatant fluid is centrifuged at 100,000×g for 60 min to pellet the receptor protein. Upon completion, the pellet is resuspended in a small volume of 50.0 mM Tris.HCl buffer, pH 7.4. The protein content is determined by the Lowry method and the receptor membranes are suspended in 50.0 mM Tris.HCl buffer containing 0.1 mM phenylmethylsulfonylfluoride (PMSF) and 0.2% bovine serum albumin (BSA) to give 2.5 mg receptor protein per ml of suspension.
as §1, with “min” for “min.”, “Non specific” for “Non-specific”, “μm” for “μM”

[5] = test system: Endogenous Arginine Vasopressin Antidiuretic (V2) Response in Conscious Rats; assay: Antagonism of Endogenous Arginine Vasopressin Antidiuretic (V2) Response in Conscious Rats (urine volume); format: in vivo, rat (Sprague-Dawley); conditions: 10 mg/kg rat p.o.; 4 hour collection
Description: Effects on the Antagonism of Endogenous Arginine Vasopressin Antidiuretic (V2) Response in Conscious Rats with Free Access to Water Drinking Before but not During the Experiment:
Male or female normotensive Sprague-Dawley rats (Charles River Laboratories, Inc., Kingston, N.Y.) of 400-450 g body weight were supplied with Laboratory Rodent Feed #5001 (PMI Feeds, Inc., Richmond, Id.) and water ad libitum. On the day of test, rats were placed individually into metabolic cages equipped with stainless steel screens (to separate the feces from the urine) and funnels for collection of urine. Vehicle or reference agent was given at various oral doses. During the test, rats were not provided with water or food. Urine was collected for four hours after dosing of the test compound. At the end of four hours, urine volume was measured. Urinary osmolality was determined using a Fiske One-Ten Osmometer (Fiske Associates, Norwood, Mass. 02062) or an Advanced CRYOMATIC Osmometer, Model 3C2 (Advanced Instruments, Norwood, Mass.). Determinations of Na^+, K^+ and Cl^- ion were carried out using ion specific electrodes in a Beckman SYNCHRON EL-ISE Electrolyte System analyzer. In the following results, increased urine volume and decreased osmolality relative to AVP-control indicates activity.

T1 sequence (Q00788 whole entry): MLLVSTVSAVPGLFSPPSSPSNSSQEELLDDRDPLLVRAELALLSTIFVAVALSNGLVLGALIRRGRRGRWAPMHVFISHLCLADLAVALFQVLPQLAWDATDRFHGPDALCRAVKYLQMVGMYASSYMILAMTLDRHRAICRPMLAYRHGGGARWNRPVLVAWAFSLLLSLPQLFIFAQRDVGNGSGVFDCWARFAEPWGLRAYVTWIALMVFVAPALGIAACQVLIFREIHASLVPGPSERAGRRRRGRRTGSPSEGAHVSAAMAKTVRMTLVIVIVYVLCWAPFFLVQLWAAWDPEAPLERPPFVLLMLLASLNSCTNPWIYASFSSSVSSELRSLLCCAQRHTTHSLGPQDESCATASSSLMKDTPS

IC50 [1]	IC50 [2]	IC50 [3]	inhibition at 10 µM [2]	SMILES	Urine Volume [5]	further results
1.1 nM	170 nM	6 nM	–	O=C(Nc1ccc(C(=O)N2Cc3cccn3Cc3ccccc32)cn1)c1ccc(F)cc1Cl [Example 9]	–	inhibition at 2.5 µM ([2]; dose 2.5 μM): 96%; IC50 ([4]; ** LV-2 cells transfected with human V2 receptor cDNA, read-out: V2 IC50 (**human V2 receptor)): 0.9 nM
–	710 nM	80 nM	95%	CC(C)(C)Nc1ccc(C(=O)N2Cc3cccn3Cc3ccccc32)cn1 [Example 348]	–	inhibition at 1 µM ([1]; at 1 μM): 43%
34 nM	205 nM	15 nM	95%	O=C(c1ccc(NC2CCc3ccccc32)nc1)N1Cc2cccn2Cc2ccccc21 (centres unmarked) [Example 350, 10-[[6-(1-Indanylamino)-3-pyridinyl)carbonyl]-10,11-dihydro-5H-pyrrolo[2,1-c][1,4]benzodiazepine]	–	–
59 nM	105 nM	88 nM	–	O=C(c1ccc(NCc2ccccc2Br)nc1)N1Cc2cccn2Cc2ccccc21 [Example 352]	–	inhibition at 1.25 µM ([2]; dose 1.25 μM): 96%

More lines, now with the values behind:

SMILES	IC50 [1]	IC50 [2]	IC50 [3]	inhibition at 10 µM [2]	Urine Volume [5]	further results
CC(C)(Oc1ccc(Cl)cc1)C(=O)Nc1ccc(C(=O)N2Cc3cccn3Cc3ccccc32)cc1 [Example 347, N-[4-(5H-Pyrrolo[2,1-c][1,4]benzodiazepin-10(11H)-ylcarbonyl)phenyl]-2-methyl-2-(4-chlorophenyloxy)propionamide]	420 nM	–	180 nM	86%	–	–
CN(C)Cc1ccc2n1Cc1ccccc1N(C(=O)c1ccc(NC(=O)c3ccccc3-c3ccccc3)cc1O)C2 [Example 372]	–	–	–	–	30.3 ml/4 hrs	IC50 ([4]; LV-2 cells transfected with human V2 receptor cDNA, Table 5, read-out: Vasopressin Binding Human V2 Receptor): 15.9 nM
O=C(Nc1ccc(C(=O)N2Cc3ccc(CN4CCC(N5CCCCC5)CC4)n3Cc3ccccc32)c(Cl)c1)c1ccccc1-c1ccccc1 [Example 373, [4-(3-[1,4]Bipiperidinyl-1'-ylmethyl-5H,11H-pyrrolo[2,1-c][1,4]benzodiazepine-10-carbonyl)-3-chloro-phenyl]-biphenyl-2-carboxylic acid amide]	–	–	–	–	15.6 ml/4 hrs	–
O=C(Nc1ccc(C(=O)N2Cc3ccc(CNC(CO)(CO)CO)n3Cc3ccccc32)c(Cl)c1)c1ccccc1-c1ccccc1 [Example 374, (3-Chloro-4-{3-[(2-hydroxy-1,1-bis-hydroxymethylethylamino)-methyl]-5H,11H-pyrrolo[2,1-c][1,4]benzodiazepine-10-carbonyl}-phenyl)-biphenyl-2-carboxylic acid amide]	–	–	–	–	16.5 ml/4 hrs	–
CN(C)CCN(C)Cc1ccc2n1Cc1ccccc1N(C(=O)c1ccc(NC(=O)c3ccccc3-c3ccccc3)cc1Cl)C2 [Example 375]	–	–	–	–	44.2 ml/4 hrs	–
CN(C)C1CCN(Cc2ccc3n2Cc2ccccc2N(C(=O)c2ccc(NC(=O)c4ccccc4-c4ccccc4)cc2Cl)C3)CC1 [Example 376, {3-chloro-4-[3-(4-dimethylamino-piperidine-1-ylmethyl)-5H,11H-pyrrolo[2,1-c][1,4]benzodiazepine-10-carbonyl]-phenyl}-biphenyl-2-carboxylic acid amide]	–	–	–	–	23.8 ml/4 hrs	–

— US5753648A, “Tricyclic benzazepine vasopressin antagonists” (American Cyanamid Company, priority 1996, dated 1998)
